Measured values: PubChem BioAssay AID248 (DTP/NCI, 2004)
Where “and” joins values, the source holds several entries; their conditions need not be identical. Identical values can stand only once. Toxic doses and inconclusive results are not listed. Cut-off read from the data, not from the text of the source: active = T/C of 150% or more; inactive = T/C below 125%.

Tested on: L1210 leukemia ip in BDF1 mice, survival T/C
Assay: NCI In Vivo Anticancer Drug Screen. Data for tumor model L1210 Leukemia (intraperitoneal) in B6D2F1 (BDF1) mice
Details: endpoint: mean survival time, higher = longer survival
Method in brief: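 Tumor cells were implanted, animals were treated, and survival was followed. The result divides the treated measurement by the vehicle-control measurement.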

[1] = dose: 100.0 mg/kg/injection, schedule: Q04DX003 (ip), vehicle: saline
[2] = dose: 400.0 mg/kg/injection, schedule: Q04DX003 (ip), vehicle: saline
[3] = dose: 100.0 mg/kg/injection, schedule: Q01DX009 (ip), vehicle: saline
[4] = dose: 200.0 mg/kg/injection, schedule: Q01DX009 (ip), vehicle: saline
[5] = dose: 400.0 mg/kg/injection, schedule: Q01DX009 (ip), vehicle: saline
[6] = dose: 100.0 mg/kg/injection, schedule: Q01DX001 (ip), vehicle: carboxymethylcellulose (CMC)

Measured: T/C

CC(C)=CCN(CC=C(C)C)CCC(C)(C(N)=O)c1cccc2ccccc12 (stereo not drawn)
inactive: dose: 6.25 mg/kg/injection, schedule: Q01DX009 (ip), vehicle: Klucel (hydroxypropylcellulose) (HPC) 101 % of control | dose: 6.25 mg/kg/injection, schedule: Q04DX003 (ip), vehicle: Klucel (hydroxypropylcellulose) (HPC) 104 % of control | dose: 12.5 mg/kg/injection, schedule: Q01DX009 (ip), vehicle: Klucel (hydroxypropylcellulose) (HPC) 98 % of control | dose: 12.5 mg/kg/injection, schedule: Q04DX003 (ip), vehicle: Klucel (hydroxypropylcellulose) (HPC) 100 % of control | dose: 25.0 mg/kg/injection, schedule: Q01DX009 (ip), vehicle: Klucel (hydroxypropylcellulose) (HPC) 101 % of control | dose: 25.0 mg/kg/injection, schedule: Q04DX003 (ip), vehicle: Klucel (hydroxypropylcellulose) (HPC) 105 % of control

O=C1OC(=O)C2C3C=CC(O3)C12 (stereo not drawn)
inactive: dose: 6.25 mg/kg/injection, schedule: Q01DX009 (ip), vehicle: saline 97 % of control | dose: 10.0 mg/kg/injection, schedule: Q04DX003 (ip), vehicle: saline with Tween-80 96 % of control | dose: 12.5 mg/kg/injection, schedule: Q01DX009 (ip), vehicle: saline with Tween-80 111 % of control | dose: 12.5 mg/kg/injection, schedule: Q01DX009 (ip), vehicle: saline 96 % of control | dose: 20.0 mg/kg/injection, schedule: Q04DX003 (ip), vehicle: saline with Tween-80 100 % of control | dose: 25.0 mg/kg/injection, schedule: Q01DX009 (ip), vehicle: saline with Tween-80 108 % of control | dose: 25.0 mg/kg/injection, schedule: Q01DX009 (ip), vehicle: saline 95 % of control | dose: 40.0 mg/kg/injection, schedule: Q04DX003 (ip), vehicle: saline with Tween-80 94 % of control | dose: 50.0 mg/kg/injection, schedule: Q01DX009 (ip), vehicle: saline with Tween-80 95 % of control

O=C(c1ccccc1)C1CC1c1ccccc1 (stereo not drawn)
inactive: dose: 75.0 mg/kg/injection, schedule: Q01DX001 (ip), vehicle: Klucel (hydroxypropylcellulose) (HPC) 96 % of control | dose: 75.0 mg/kg/injection, schedule: Q04DX002 (ip), vehicle: saline with Tween-80 105 % of control | [1] 101 % of control | dose: 150.0 mg/kg/injection, schedule: Q01DX001 (ip), vehicle: Klucel (hydroxypropylcellulose) (HPC) 100 % of control | dose: 150.0 mg/kg/injection, schedule: Q04DX002 (ip), vehicle: saline with Tween-80 91 % of control | dose: 200.0 mg/kg/injection, schedule: Q04DX003 (ip), vehicle: saline 93 % of control | dose: 300.0 mg/kg/injection, schedule: Q01DX001 (ip), vehicle: Klucel (hydroxypropylcellulose) (HPC) 102 % of control | dose: 300.0 mg/kg/injection, schedule: Q04DX002 (ip), vehicle: saline with Tween-80 98 % of control | [2] 103 % of control

Cc1nnc2[nH]c(=O)[nH]c(=O)c2n1
inactive: dose: 50.0 mg/kg/injection, schedule: Q01DX001 (ip), vehicle: saline 98 % of control | dose: 100.0 mg/kg/injection, schedule: Q01DX001 (ip), vehicle: saline 104 % of control | dose: 200.0 mg/kg/injection, schedule: Q01DX001 (ip), vehicle: saline 101 % of control | dose: 400.0 mg/kg/injection, schedule: Q01DX001 (ip), vehicle: saline 98 % of control

CC1=[N+]([O-])[N+]([O-])=C(c2ccccc2)C1=O
inactive: dose: 100.0 mg/kg/injection, schedule: Q04DX002 (ip), vehicle: Klucel (hydroxypropylcellulose) (HPC) 100 % of control | dose: 200.0 mg/kg/injection, schedule: Q04DX002 (ip), vehicle: Klucel (hydroxypropylcellulose) (HPC) 95 % of control | dose: 400.0 mg/kg/injection, schedule: Q04DX002 (ip), vehicle: Klucel (hydroxypropylcellulose) (HPC) 87 % of control

CCOC(=O)C(C(=O)OCC)C(C)(C)c1ccccc1
inactive: [3] 104 % of control | [4] 103 % of control | [5] 101 % of control

Brc1ccc2c(ccn2Cc2ccccc2)c1
inactive: dose: 100.0 mg/kg/injection, schedule: Q04DX003 (sc), vehicle: olive oil, sesame oil, peanut oil 109 % of control | dose: 200.0 mg/kg/injection, schedule: Q04DX003 (sc), vehicle: olive oil, sesame oil, peanut oil 106 % of control | dose: 400.0 mg/kg/injection, schedule: Q04DX003 (sc), vehicle: olive oil, sesame oil, peanut oil 104 % of control

CCC1C(=O)C=C(C)OC1=O (stereo not drawn)
inactive: dose: 75.0 mg/kg/injection, schedule: Q01DX009 (ip), vehicle: Klucel (hydroxypropylcellulose) (HPC) 107 % of control | dose: 150.0 mg/kg/injection, schedule: Q01DX009 (ip), vehicle: Klucel (hydroxypropylcellulose) (HPC) 101 % of control | dose: 300.0 mg/kg/injection, schedule: Q01DX009 (ip), vehicle: Klucel (hydroxypropylcellulose) (HPC) 86 % of control

CCOC(=O)C(N=Nc1nn[nH]n1)C(C)=O (stereo not drawn)
inactive: dose: 100.0 mg/kg/injection, schedule: Q04DX003 (ip), vehicle: acetone 109 % of control | dose: 200.0 mg/kg/injection, schedule: Q04DX003 (ip), vehicle: acetone 94 % of control | dose: 400.0 mg/kg/injection, schedule: Q04DX003 (ip), vehicle: acetone 108 % of control

O=C1N(Cl)C2C(N1Cl)N(Cl)C(=O)N2Cl (stereo not drawn)
inactive: dose: 50.0 mg/kg/injection, schedule: Q01DX001 (ip), vehicle: carboxymethylcellulose (CMC) 97 % of control | [6] 97 % of control

Cc1cc(O)c2cc3c(O)c(O)ccc3cc2c1
inactive: dose: 0.5 mg/kg/injection, schedule: Q01DX015 (ip), vehicle: saline 94 % of control | dose: 1.0 mg/kg/injection, schedule: Q01DX015 (ip), vehicle: saline 96 % of control | dose: 2.0 mg/kg/injection, schedule: Q01DX015 (ip), vehicle: saline 96 % of control | dose: 4.0 mg/kg/injection, schedule: Q01DX015 (ip), vehicle: saline 100 % of control and 109 % of control | dose: 5.0 mg/kg/injection, schedule: Q01DX001 (ip), vehicle: saline 112 % of control | dose: 6.2 mg/kg/injection, schedule: Q01DX001 (ip), vehicle: carboxymethylcellulose (CMC) 108 % of control | dose: 8.0 mg/kg/injection, schedule: Q01DX015 (ip), vehicle: saline 103 % of control | dose: 10.0 mg/kg/injection, schedule: Q01DX001 (ip), vehicle: saline 115 % of control | dose: 12.5 mg/kg/injection, schedule: Q01DX001 (ip), vehicle: carboxymethylcellulose (CMC) 104 % of control | dose: 25.0 mg/kg/injection, schedule: Q01DX001 (ip), vehicle: carboxymethylcellulose (CMC) 110 % of control

CCCC(C(=O)O)C(CCC)C(=O)O (stereo not drawn)
inactive: dose: 100.0 mg/kg/injection, schedule: Q01DX009 (ip), vehicle: saline with Tween-80 92 % of control | dose: 200.0 mg/kg/injection, schedule: Q01DX009 (ip), vehicle: saline with Tween-80 96 % of control

O=S(=O)(O)c1ccc2c(O)cc(S(=O)(=O)O)cc2c1
inactive: [3] 106 % of control | [1] 95 % of control | [4] 112 % of control | [5] 103 % of control | [2] 100 % of control

Cc1ccc(S(=O)(=O)OCC(O)C(O)C(O)C(O)C=O)cc1 (stereo not drawn) (tested in a mixture with another compound)
inactive: dose: 100.0 mg/kg/injection, schedule: Q04DX003 (ip), vehicle: saline with Tween-80 102 % of control | dose: 200.0 mg/kg/injection, schedule: Q04DX003 (ip), vehicle: saline with Tween-80 94 % of control | dose: 400.0 mg/kg/injection, schedule: Q04DX003 (ip), vehicle: saline with Tween-80 94 % of control

CCC(C)C(NC(=O)C(CC(C)C)N(C)C)C(=O)N1CCC2Oc3ccc(cc3)/C=C\NC(=O)C(Cc3ccccc3)NC(=O)C21 (stereo not drawn)
inactive: dose: 100.0 mg/kg/injection, schedule: Q04DX003 (ip), vehicle: Klucel (hydroxypropylcellulose) (HPC) 96 % of control | dose: 200.0 mg/kg/injection, schedule: Q04DX003 (ip), vehicle: Klucel (hydroxypropylcellulose) (HPC) 108 % of control | dose: 400.0 mg/kg/injection, schedule: Q04DX003 (ip), vehicle: Klucel (hydroxypropylcellulose) (HPC) 94 % of control

CN(C)CC(=O)c1ccc(Cl)cc1
inactive: dose: 50.0 mg/kg/injection, schedule: Q01DX009 (ip), vehicle: saline 87 % of control | [3] 102 % of control

COc1ccc(NC(=O)Oc2ccccn2)cc1
inactive: dose: 25.0 mg/kg/injection, schedule: Q01DX009 (ip), vehicle: carboxymethylcellulose (CMC) 92 % of control and 100 % of control | dose: 50.0 mg/kg/injection, schedule: Q01DX009 (ip), vehicle: carboxymethylcellulose (CMC) 93 % of control and 103 % of control | [6] 97 % of control | dose: 100.0 mg/kg/injection, schedule: Q04DX003 (ip), vehicle: carboxymethylcellulose (CMC) 93 % of control and 106 % of control | dose: 200.0 mg/kg/injection, schedule: Q01DX001 (ip), vehicle: carboxymethylcellulose (CMC) 101 % of control | dose: 200.0 mg/kg/injection, schedule: Q04DX003 (ip), vehicle: carboxymethylcellulose (CMC) 97 % of control and 113 % of control | dose: 400.0 mg/kg/injection, schedule: Q01DX001 (ip), vehicle: carboxymethylcellulose (CMC) 113 % of control | dose: 400.0 mg/kg/injection, schedule: Q04DX003 (ip), vehicle: carboxymethylcellulose (CMC) 97 % of control and 108 % of control
